Laboratory results taken from patent US4268665A, “Derivatives of antibiotic tylosin” (Toyo Jozo Kabushiki Kaisha, priority 1978, dated 1981).
In brackets after ≈: the same amount, converted by molar mass. Like-named read-outs stand apart in the source and are kept apart here.

Assays:
Type in all cases: cell-based
Staph.aureus 0116 = assay: MIC on Staph.aureus 0116 (macrolide-resistant A group); settings: Staphylococcus aureus
From the text: (§1) In Table I hereinafter is shown the minimum inhibitory concentrations (MIC) on microorganisms of the products of the present invention. As a result, the compound [1] is seen to be effective against macrolide-resistant A group microorganisms.
(§2) *Erythromycin, oleandomycin, 16membered macrolide resistant strains of
(§3) clinical isolates (macrolideresistant Agroup strains)

Strept.pyogenes N.Y.5 = assay: MIC on Strept.pyogenes N.Y.5; settings: Streptococcus pyogenes
From the text: as §1

Staph.aureus MS353 = assay: MIC on Staph.aureus MS353; settings: Staphylococcus aureus
From the text: as §1

Staph.aureus 0127 = assay: MIC on Staph.aureus 0127 (macrolide-resistant A group); settings: Staphylococcus aureus; Staph.aureus 0127, erythromycin, oleandomycin, 16-membered macrolide resistant clinical isolate
From the text: as §1, §2, §3

Strept.pyogenes 1022 = assay: MIC on Strept.pyogenes 1022 (macrolide-resistant A group); settings: Streptococcus pyogenes; Strept.pyogenes 1022, erythromycin, oleandomycin, 16-membered macrolide resistant clinical isolate
From the text: as §1, §2, §3

Staph.aureus 0119 = assay: MIC on Staph.aureus 0119 (macrolide-resistant A group); settings: Staphylococcus aureus
From the text: as §1, §2, §3

Staph.aureus MS353A0 = assay: MIC on Staph.aureus MS353A0 (macrolide-resistant A group); settings: Staphylococcus aureus; Staph.aureus MS353A0, erythromycin, oleandomycin, 16-membered macrolide resistant clinical isolate
From the text: as §1, §2, §3

Staph.aureus ATCC6538P = assay: MIC on Staph.aureus ATCC6538P; settings: Staphylococcus aureus
From the text: as §1

[1] = Staph.aureus 0119, erythromycin, oleandomycin, 16-membered macrolide resistant clinical isolate, read-out: MIC
[2] = Staph.aureus 0116, erythromycin, oleandomycin, 16-membered macrolide resistant clinical isolate, read-out: MIC

Compound | MIC (Staph.aureus 0116; 0116) [µg/mL] | MIC (Strept.pyogenes N.Y.5) [µg/mL] | MIC (Staph.aureus MS353) [µg/mL] | MIC (Staph.aureus 0127) [µg/mL] | MIC (Strept.pyogenes 1022) [µg/mL] | MIC (Staph.aureus 0119; [1]) [µg/mL] | MIC (Staph.aureus MS353A0) [µg/mL] | MIC (Staph.aureus ATCC6538P) [µg/mL] | MIC (Staph.aureus 0116; [2]) [µg/mL] | MIC (Staph.aureus 0119; 0119) [µg/mL]
CCC1OC(=O)CC(O)C(C)C(OC2OC(C)C(OC3CC(C)(OC(C)=O)C(OC(C)=O)C(C)O3)C(N(C)C)C2O)C(CC=O)CC(C)C(=O)C=CC(C)=CC1COC1OC(C)C(O)C(OC)C1OC (stereo not drawn) [3"-Ac, 4"-Ac, 3", 4"-diacetyltylosin] | 12.5 (≈ 12.5 µM) | 0.2 (≈ 0.2 µM) | 1.6 (≈ 1.6 µM) | 100 (≈ 100 µM) | 6.3 (≈ 6.3 µM) | 50 (≈ 50 µM) | 12.5 (≈ 12.5 µM) | 0.8 (≈ 0.8 µM) | – | –
CCCC(=O)OC1C(C)OC(OC2C(C)OC(OC3C(CC=O)CC(C)C(=O)C=CC(C)=CC(COC4OC(C)C(O)C(OC)C4OC)C(CC)OC(=O)CC(O)C3C)C(O)C2N(C)C)CC1(C)OC(C)=O (stereo not drawn) [3"-Ac, 4"-Bu, 3"-acetyl-4"-butyryltylosin] | – | 0.2 (≈ 0.195 µM) | 3.1 (≈ 3.01 µM) | 25 (≈ 24.3 µM) | 1.6 (≈ 1.56 µM) | – | 12.5 (≈ 12.2 µM) | 1.6 (≈ 1.56 µM) | 6.3 (≈ 6.13 µM) | 12.5 (≈ 12.2 µM)
CCCCCC(=O)OC1C(C)OC(OC2C(C)OC(OC3C(CC=O)CC(C)C(=O)C=CC(C)=CC(COC4OC(C)C(O)C(OC)C4OC)C(CC)OC(=O)CC(O)C3C)C(O)C2N(C)C)CC1(C)OC(C)=O (stereo not drawn) [3"-Ac, 4"-Hex, 3"-acetyl-4"-hexanoyltylosin] | – | 0.4 (≈ 0.379 µM) | 3.1 (≈ 2.93 µM) | 25 (≈ 23.7 µM) | 1.6 (≈ 1.51 µM) | – | 12.5 (≈ 11.8 µM) | 1.6 (≈ 1.51 µM) | 6.3 (≈ 5.96 µM) | 12.5 (≈ 11.8 µM)
CCC1OC(=O)CC(O)C(C)C(OC2OC(C)C(OC3CC(C)(OC(C)=O)C(OC(=O)CC(C)C)C(C)O3)C(N(C)C)C2O)C(CC=O)CC(C)C(=O)C=CC(C)=CC1COC1OC(C)C(O)C(OC)C1OC (stereo not drawn) [3"-Ac, 4"-Iva, 3"-acetyl-4"-isovaleryltylosin] | – | 0.2 (≈ 0.192 µM) | 3.1 (≈ 2.97 µM) | 12.5 (≈ 12 µM) | 1.6 (≈ 1.54 µM) | 6.3 (≈ 6.04 µM) | 6.3 (≈ 6.04 µM) | 1.6 (≈ 1.54 µM) | 6.3 (≈ 6.04 µM) | –
CCC(=O)OC1C(C)OC(OC2C(C)OC(OC3C(CC=O)CC(C)C(=O)C=CC(C)=CC(COC4OC(C)C(O)C(OC)C4OC)C(CC)OC(=O)CC(O)C3C)C(O)C2N(C)C)CC1(C)OC(C)=O (stereo not drawn) [3"-Ac, 4"-Pro, 3"-acetyl-4"-propionyltylosin] | – | 0.2 (≈ 0.197 µM) | 3.1 (≈ 3.06 µM) | 25 (≈ 24.6 µM) | 1.6 (≈ 1.58 µM) | 12.5 (≈ 12.3 µM) | 25 (≈ 24.6 µM) | 1.6 (≈ 1.58 µM) | 6.3 (≈ 6.21 µM) | –
CCCC(=O)OC1C(C)OC(OC2C(C)OC(OC3C(CC=O)CC(C)C(=O)C=CC(C)=CC(COC4OC(C)C(O)C(OC)C4OC)C(CC)OC(=O)CC(O)C3C)C(O)C2N(C)C)CC1(C)OC(=O)CCC (stereo not drawn) [3"-Bu, 4"-Bu, 3", 4"-dibutyryltylosin] | – | 0.2 (≈ 0.189 µM) | 6.1 (≈ 5.77 µM) | 25 (≈ 23.7 µM) | 1.6 (≈ 1.51 µM) | – | 12.5 (≈ 11.8 µM) | 1.6 (≈ 1.51 µM) | 6.3 (≈ 5.96 µM) | 12.5 (≈ 11.8 µM)
CCCC(=O)OC1C(C)OC(OC2C(C)OC(OC3C(CC=O)CC(C)C(=O)C=CC(C)=CC(COC4OC(C)C(O)C(OC)C4OC)C(CC)OC(=O)CC(O)C3C)C(O)C2N(C)C)CC1(C)O (stereo not drawn) [3"-H, 4"-Bu, reference compound] | – | 0.2 (≈ 0.203 µM) | 3.1 (≈ 3.14 µM) | 100 (≈ 101 µM) | 12.5 (≈ 12.7 µM) | 50 (≈ 50.7 µM) | 50 (≈ 50.7 µM) | 0.8 (≈ 0.811 µM) | 25 (≈ 25.3 µM) | –
CC[C@H]1OC(=O)C[C@@H](O)[C@H](C)[C@@H](O[C@@H]2O[C@H](C)[C@@H](O[C@H]3C[C@@](C)(O)[C@@H](O)[C@H](C)O3)[C@H](N(C)C)[C@H]2O)[C@@H](CC=O)C[C@@H](C)C(=O)/C=C/C(C)=C/[C@@H]1CO[C@@H]1O[C@H](C)[C@@H](O)[C@@H](OC)[C@H]1OC [3"-H, 4"-H, tylosin] | – | 0.2 (≈ 0.218 µM) | 1.6 (≈ 1.75 µM) | > 100 | > 100 | > 100 | > 100 | 0.8 (≈ 0.873 µM) | > 100 | –
CCC1OC(=O)CC(O)C(C)C(OC2OC(C)C(OC3CC(C)(OC(=O)CC(C)C)C(OC(C)=O)C(C)O3)C(N(C)C)C2O)C(CC=O)CC(C)C(=O)C=CC(C)=CC1COC1OC(C)C(O)C(OC)C1OC (stereo not drawn) [3"-Iva, 4"-Ac, 4"-acetyl-3"-isovaleryltylosin] | – | 0.2 (≈ 0.192 µM) | 1.6 (≈ 1.54 µM) | > 100 | 6.3 (≈ 6.04 µM) | 25 (≈ 24 µM) | 6.3 (≈ 6.04 µM) | 0.8 (≈ 0.768 µM) | 6.3 (≈ 6.04 µM) | –
CCCC(=O)OC1C(C)OC(OC2C(C)OC(OC3C(CC=O)CC(C)C(=O)C=CC(C)=CC(COC4OC(C)C(O)C(OC)C4OC)C(CC)OC(=O)CC(O)C3C)C(O)C2N(C)C)CC1(C)OC(=O)CC (stereo not drawn) [3"-Pro, 4"-Bu, 4"-butyryl-3"-propionyltylosin] | – | 0.2 (≈ 0.192 µM) | 3.1 (≈ 2.97 µM) | 25 (≈ 24 µM) | 1.6 (≈ 1.54 µM) | – | 12.5 (≈ 12 µM) | 1.6 (≈ 1.54 µM) | 6.3 (≈ 6.04 µM) | 12.5 (≈ 12 µM)
CCC(=O)OC1(C)CC(OC2C(C)OC(OC3C(CC=O)CC(C)C(=O)C=CC(C)=CC(COC4OC(C)C(O)C(OC)C4OC)C(CC)OC(=O)CC(O)C3C)C(O)C2N(C)C)OC(C)C1OC(=O)CC(C)C (stereo not drawn) [3"-Pro, 4"-Iva, 4"-isovaleryl-3"-propionyltylosin] | – | 0.4 (≈ 0.379 µM) | 3.1 (≈ 2.93 µM) | 12.5 (≈ 11.8 µM) | 0.8 (≈ 0.757 µM) | 6.3 (≈ 5.96 µM) | 6.3 (≈ 5.96 µM) | 1.6 (≈ 1.51 µM) | 6.3 (≈ 5.96 µM) | –
CCC(=O)OC1C(C)OC(OC2C(C)OC(OC3C(CC=O)CC(C)C(=O)C=CC(C)=CC(COC4OC(C)C(O)C(OC)C4OC)C(CC)OC(=O)CC(O)C3C)C(O)C2N(C)C)CC1(C)OC(=O)CC (stereo not drawn) [3"-Pro, 4"-Pro, 3", 4"-dipropionyltylosin] | – | 0.2 (≈ 0.195 µM) | 3.1 (≈ 3.01 µM) | 25 (≈ 24.3 µM) | 1.6 (≈ 1.56 µM) | 12.5 (≈ 12.2 µM) | 25 (≈ 24.3 µM) | 1.6 (≈ 1.56 µM) | 6.3 (≈ 6.13 µM) | –
